Activity calls are given as the source filed them. Rule as the data show it, for most assays here: actives have a measured IC50 and inactives only a lower limit.
Key:
CHO = CHO cell viability loss, potency – luminescence, cytotoxicity control for TLR9-MyD88 binding inhibitor project, dose response (AID 588339); type: functional, cell-based, hamster; conditions: Cricetulus griseus;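 also: CHO cells stably coexpressing TLR9 and MyD88 fusions from primary screen; compound exposure lasted 48 hours before viability readout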
Beta Lactamase = Beta Lactamase (Pseudomonas aeruginosa, UniProt Q932Y6); test: BLA reporter interference, concentration series – BLA reporter cells, FRET fluorescence, artefact control for TLR9-MyD88 binding inhibitor project, dose response (AID 588341); type: cell-based;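 also: cell based assay in CHO-K1 cells stably expressing beta-lactamase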
Chain of Beta Lactamase (Q932Y6 whole entry, the tested form may be a part): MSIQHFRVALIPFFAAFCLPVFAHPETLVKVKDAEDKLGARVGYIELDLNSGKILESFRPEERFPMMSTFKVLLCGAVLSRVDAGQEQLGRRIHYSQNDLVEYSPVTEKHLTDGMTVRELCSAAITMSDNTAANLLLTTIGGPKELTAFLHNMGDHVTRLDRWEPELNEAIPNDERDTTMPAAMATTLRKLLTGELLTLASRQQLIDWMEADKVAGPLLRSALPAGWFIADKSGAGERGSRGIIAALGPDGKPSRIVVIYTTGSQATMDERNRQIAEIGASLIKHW

[1] = molecular target: T1, RNA-binding protein pos-1 (Caenorhabditis elegans, UniProt G5EF15); test: disruptors of C. elegans POS-1 RNA interaction – biochemical, fluorescence polarization, dose response (AID 1964);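 also: purified POS-1 fused to maltose binding protein made in E. coli; potency of compounds blocking POS-1 binding to fluorescent RNA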
T1 sequence (G5EF15 whole entry): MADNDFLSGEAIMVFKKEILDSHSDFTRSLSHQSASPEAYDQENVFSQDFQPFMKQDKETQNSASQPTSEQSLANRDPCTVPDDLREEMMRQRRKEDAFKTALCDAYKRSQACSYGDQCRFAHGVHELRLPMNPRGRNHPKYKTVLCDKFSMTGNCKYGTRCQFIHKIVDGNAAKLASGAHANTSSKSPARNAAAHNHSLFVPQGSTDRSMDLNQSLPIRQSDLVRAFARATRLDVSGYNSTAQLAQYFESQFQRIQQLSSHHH

[2] = molecular target: T2, Zinc finger protein mex-5 (Caenorhabditis elegans, UniProt Q9XUB2); test: potency of MEX-5 RNA-binding blockers – biochemical, C. elegans, fluorescence polarization, dose response (AID 1960)
T2 sequence (Q9XUB2 whole entry): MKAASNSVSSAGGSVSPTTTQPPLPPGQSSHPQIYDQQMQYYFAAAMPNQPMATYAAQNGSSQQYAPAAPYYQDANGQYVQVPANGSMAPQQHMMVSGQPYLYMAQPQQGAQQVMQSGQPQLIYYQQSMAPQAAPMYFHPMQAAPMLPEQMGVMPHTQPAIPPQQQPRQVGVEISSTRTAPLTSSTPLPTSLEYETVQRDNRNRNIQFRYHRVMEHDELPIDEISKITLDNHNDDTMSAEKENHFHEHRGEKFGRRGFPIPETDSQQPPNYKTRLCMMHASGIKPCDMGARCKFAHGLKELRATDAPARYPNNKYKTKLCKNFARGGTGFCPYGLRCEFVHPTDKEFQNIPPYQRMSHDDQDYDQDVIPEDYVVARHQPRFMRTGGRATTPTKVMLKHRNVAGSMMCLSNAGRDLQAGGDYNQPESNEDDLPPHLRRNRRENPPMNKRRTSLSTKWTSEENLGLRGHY

Ephrin type-A receptor 4 = Ephrin type-A receptor 4 (Mus musculus, UniProt Q03137); test: EphA4 ligand-binding antagonists – biochemical, colorimetric, mouse EphA4, primary screen (AID 689); type: functional
Chain of Ephrin type-A receptor 4 (Q03137 whole entry): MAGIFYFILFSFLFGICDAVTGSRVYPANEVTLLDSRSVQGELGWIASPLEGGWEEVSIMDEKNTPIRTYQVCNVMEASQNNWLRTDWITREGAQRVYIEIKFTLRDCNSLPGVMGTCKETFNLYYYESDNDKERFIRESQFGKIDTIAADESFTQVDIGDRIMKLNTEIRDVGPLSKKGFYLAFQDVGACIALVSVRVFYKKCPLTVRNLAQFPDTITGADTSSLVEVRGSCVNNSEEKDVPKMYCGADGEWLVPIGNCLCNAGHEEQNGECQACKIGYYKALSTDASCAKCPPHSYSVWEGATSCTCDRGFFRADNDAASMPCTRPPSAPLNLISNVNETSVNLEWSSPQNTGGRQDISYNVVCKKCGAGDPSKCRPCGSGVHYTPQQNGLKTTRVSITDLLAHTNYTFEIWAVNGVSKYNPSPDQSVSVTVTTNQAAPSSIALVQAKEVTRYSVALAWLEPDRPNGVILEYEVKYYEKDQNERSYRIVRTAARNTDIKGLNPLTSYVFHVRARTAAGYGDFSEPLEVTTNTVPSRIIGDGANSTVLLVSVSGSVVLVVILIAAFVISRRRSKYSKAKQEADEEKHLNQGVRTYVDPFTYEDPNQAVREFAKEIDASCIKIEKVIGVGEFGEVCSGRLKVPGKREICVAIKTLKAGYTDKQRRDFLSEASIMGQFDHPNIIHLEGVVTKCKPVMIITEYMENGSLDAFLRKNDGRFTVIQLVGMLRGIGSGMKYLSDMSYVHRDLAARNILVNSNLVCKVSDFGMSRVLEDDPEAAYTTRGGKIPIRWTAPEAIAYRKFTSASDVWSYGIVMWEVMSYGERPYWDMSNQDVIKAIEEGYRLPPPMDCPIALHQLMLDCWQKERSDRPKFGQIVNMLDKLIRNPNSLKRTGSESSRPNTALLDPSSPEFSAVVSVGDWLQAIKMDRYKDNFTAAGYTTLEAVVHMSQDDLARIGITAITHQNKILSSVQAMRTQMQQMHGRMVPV

[3] = molecular target: Voltage-dependent T-type calcium channel subunit alpha-1H (Homo sapiens, UniProt O95180); type: functional;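 also: channel activity triggered by adding a high calcium stimulation buffer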
Chain of Voltage-dependent T-type calcium channel subunit alpha-1H (O95180 whole entry): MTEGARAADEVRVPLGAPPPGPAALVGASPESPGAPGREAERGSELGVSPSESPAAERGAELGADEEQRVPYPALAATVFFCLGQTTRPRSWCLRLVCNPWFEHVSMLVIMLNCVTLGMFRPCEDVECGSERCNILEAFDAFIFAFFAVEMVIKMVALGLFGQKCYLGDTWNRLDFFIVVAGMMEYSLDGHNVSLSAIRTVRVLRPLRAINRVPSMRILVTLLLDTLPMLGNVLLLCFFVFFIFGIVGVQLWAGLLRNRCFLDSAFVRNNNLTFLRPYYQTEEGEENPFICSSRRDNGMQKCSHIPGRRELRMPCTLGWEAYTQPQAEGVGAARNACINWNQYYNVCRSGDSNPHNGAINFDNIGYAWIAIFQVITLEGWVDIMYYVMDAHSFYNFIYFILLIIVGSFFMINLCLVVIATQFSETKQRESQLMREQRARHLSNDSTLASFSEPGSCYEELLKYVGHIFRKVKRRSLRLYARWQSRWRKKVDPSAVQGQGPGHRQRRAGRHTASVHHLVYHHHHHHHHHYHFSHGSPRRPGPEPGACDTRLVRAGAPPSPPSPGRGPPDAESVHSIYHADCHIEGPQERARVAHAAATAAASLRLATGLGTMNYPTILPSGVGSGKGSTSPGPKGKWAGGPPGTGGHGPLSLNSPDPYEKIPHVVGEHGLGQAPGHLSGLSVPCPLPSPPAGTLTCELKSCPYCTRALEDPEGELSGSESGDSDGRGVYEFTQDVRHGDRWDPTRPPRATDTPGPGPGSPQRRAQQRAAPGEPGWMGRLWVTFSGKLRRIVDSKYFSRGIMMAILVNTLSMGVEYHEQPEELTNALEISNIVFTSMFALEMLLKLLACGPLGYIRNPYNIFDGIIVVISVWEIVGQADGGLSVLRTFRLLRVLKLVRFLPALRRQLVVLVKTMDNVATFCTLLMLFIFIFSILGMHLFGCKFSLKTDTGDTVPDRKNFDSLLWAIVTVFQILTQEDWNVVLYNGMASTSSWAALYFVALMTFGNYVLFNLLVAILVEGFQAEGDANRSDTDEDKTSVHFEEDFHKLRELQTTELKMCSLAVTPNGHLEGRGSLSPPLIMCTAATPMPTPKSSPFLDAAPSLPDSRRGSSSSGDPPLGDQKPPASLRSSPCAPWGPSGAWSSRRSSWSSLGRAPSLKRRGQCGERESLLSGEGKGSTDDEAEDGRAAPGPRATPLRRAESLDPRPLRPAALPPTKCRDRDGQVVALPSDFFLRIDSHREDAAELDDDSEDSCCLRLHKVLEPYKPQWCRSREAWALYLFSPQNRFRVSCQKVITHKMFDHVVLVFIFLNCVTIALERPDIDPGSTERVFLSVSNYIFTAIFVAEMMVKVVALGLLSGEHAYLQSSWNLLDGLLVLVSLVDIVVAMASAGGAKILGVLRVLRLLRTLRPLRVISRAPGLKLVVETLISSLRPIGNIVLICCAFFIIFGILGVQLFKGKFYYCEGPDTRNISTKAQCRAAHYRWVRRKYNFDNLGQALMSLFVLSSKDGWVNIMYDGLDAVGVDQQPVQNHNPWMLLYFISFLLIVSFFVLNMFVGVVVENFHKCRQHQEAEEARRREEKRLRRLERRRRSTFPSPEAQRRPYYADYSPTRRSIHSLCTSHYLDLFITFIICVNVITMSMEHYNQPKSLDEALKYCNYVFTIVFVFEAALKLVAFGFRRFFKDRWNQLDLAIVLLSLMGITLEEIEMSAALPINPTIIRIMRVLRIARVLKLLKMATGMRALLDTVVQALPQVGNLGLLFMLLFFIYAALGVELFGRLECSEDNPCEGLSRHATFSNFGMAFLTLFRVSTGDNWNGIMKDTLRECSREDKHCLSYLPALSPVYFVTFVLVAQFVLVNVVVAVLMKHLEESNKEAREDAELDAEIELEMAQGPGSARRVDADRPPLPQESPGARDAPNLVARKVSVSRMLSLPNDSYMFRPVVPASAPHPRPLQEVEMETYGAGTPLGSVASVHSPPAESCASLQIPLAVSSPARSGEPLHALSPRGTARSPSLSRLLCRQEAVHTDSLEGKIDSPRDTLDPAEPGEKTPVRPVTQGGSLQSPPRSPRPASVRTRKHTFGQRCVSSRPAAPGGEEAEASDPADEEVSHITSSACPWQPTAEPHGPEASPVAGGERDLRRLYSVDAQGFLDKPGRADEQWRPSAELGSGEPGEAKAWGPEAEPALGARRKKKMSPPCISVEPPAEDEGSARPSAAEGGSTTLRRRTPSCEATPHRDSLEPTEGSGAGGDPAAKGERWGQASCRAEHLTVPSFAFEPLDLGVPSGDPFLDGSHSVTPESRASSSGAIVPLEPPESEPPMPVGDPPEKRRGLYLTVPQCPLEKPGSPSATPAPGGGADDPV

[4] = molecular target: T3, Endoribonuclease toxin MazF (Escherichia coli K-12, UniProt P0AE70); test: activation of MazEF endoribonuclease cleavage – biochemical, fluorescence, single-stranded RNA substrate, uHTS hits, dose response (AID 588481); type: functional
T3 sequence (P0AE70 whole entry): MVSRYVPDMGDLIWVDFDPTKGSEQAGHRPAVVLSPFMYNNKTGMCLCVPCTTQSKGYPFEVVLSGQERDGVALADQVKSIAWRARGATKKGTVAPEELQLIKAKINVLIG

[5] = molecular target: T3, Endoribonuclease toxin MazF; test: substrate-only fluorescence increase artefacts – biochemical, single-stranded RNase substrate, counter-screen for MazEF activator project, dose response (AID 588502); type: functional
[6] = molecular target: T4, Corticotropin-releasing factor receptor 2/Corticotropin-releasing factor-binding protein (Homo sapiens, UniProt P24387+Q13324); test: activators of CRF receptor 2 with binding protein – uHTS hits, confirmation (AID 602473); type: functional; conditions: read-out: EC50_Mean
T4 sequence (Q13324 whole entry): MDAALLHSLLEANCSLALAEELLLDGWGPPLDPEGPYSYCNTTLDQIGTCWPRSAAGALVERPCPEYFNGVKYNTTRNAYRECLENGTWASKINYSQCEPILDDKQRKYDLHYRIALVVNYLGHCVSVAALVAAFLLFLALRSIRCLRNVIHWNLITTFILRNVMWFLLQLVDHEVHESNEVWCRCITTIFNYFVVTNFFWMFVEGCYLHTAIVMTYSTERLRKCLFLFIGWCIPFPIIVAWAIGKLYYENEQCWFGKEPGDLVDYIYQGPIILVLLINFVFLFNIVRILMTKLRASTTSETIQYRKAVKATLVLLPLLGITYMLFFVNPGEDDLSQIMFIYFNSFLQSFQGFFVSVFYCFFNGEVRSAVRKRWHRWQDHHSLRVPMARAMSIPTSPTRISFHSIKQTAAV
T4 sequence (P24387 whole entry): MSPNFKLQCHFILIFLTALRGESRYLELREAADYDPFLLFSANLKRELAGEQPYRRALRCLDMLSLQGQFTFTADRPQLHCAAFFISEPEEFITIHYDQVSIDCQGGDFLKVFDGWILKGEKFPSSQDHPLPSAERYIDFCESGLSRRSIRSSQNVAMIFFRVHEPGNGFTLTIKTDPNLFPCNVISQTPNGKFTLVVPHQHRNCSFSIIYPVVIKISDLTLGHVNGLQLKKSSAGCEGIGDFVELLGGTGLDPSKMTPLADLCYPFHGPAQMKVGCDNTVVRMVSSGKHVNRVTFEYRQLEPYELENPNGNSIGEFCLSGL

[7] = molecular target: T5, Sentrin-specific protease 8 (Homo sapiens, UniProt Q96LD8); test: inhibition of human SENP8 cleavage activity – biochemical, luminescence, SAR follow-up (AID 504501); type: functional
T5 sequence (Q96LD8 whole entry): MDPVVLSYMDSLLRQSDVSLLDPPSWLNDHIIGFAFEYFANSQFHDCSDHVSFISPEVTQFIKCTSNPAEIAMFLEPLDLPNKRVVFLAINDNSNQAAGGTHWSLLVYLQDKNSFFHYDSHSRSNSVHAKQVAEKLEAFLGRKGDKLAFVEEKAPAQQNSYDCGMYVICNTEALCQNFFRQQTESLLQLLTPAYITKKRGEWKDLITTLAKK

Caspase-3 [8] = molecular target: T6, Caspase-3 (Homo sapiens, UniProt P42574); test: inhibition of recombinant caspase-3 activity – biochemical, luminescence, set 2, selectivity assay for SENP protease inhibitor project, SAR follow-up (AID 588599); type: functional
T6 sequence (P42574 whole entry): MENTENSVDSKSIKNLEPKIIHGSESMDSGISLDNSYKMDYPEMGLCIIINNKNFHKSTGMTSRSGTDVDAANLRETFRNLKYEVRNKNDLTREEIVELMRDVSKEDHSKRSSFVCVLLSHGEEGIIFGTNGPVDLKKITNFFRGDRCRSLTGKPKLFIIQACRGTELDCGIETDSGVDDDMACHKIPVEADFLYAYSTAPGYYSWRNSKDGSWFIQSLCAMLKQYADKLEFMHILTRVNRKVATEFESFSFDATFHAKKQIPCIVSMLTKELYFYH

[9] = molecular target: T5, Sentrin-specific protease 8; test: inhibition of sentrin protease 8 – biochemical, luminescence, set 2, SAR follow-up (AID 588601); type: functional
Caspase-3 [10] = molecular target: T6, Caspase-3; test: SAR Analysis of small molecule inhibitors of Sentrin-specific proteases (SENPs) using a Caspase-3 Selectivity assay. [Related pubchem assays (depositor defined):AID2540, AID2599, AID434973, AID489001]; type: functional
[11] = molecular target: T7, Sentrin-specific protease 7 (Homo sapiens, UniProt Q9BQF6); test: inhibition of human SENP7 cleavage activity – biochemical, luminescence, set 2, SAR follow-up (AID 588600); type: functional
T7 sequence (Q9BQF6 whole entry): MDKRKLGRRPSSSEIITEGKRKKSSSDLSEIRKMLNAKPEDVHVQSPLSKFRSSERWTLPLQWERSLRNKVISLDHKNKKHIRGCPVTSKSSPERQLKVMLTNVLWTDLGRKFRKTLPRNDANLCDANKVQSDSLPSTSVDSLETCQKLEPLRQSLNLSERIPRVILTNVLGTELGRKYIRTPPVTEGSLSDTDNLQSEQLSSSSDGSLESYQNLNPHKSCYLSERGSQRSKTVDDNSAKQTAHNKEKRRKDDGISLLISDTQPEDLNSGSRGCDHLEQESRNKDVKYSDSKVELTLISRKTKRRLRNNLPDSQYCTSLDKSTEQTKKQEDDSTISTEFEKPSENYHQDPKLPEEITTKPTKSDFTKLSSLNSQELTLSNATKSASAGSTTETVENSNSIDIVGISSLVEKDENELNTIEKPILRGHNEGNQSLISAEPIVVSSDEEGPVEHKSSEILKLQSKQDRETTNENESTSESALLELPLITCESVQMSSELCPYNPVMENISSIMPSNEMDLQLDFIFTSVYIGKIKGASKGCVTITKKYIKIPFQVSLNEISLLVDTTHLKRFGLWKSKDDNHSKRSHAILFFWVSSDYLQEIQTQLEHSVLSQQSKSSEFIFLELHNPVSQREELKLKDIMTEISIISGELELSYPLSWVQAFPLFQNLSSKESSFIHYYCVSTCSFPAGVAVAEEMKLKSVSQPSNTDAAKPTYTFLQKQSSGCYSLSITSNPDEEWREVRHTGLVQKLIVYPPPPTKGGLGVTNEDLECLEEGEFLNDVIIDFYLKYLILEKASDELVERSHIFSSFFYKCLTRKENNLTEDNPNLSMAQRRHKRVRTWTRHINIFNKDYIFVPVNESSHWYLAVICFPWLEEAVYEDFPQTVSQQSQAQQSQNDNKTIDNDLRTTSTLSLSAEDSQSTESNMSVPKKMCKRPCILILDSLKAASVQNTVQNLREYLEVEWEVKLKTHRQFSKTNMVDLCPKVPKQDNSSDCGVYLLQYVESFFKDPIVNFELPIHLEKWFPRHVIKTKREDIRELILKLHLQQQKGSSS

[12] = molecular target: T8, Sentrin-specific protease 6 (Homo sapiens, UniProt Q9GZR1); test: SAR Analysis of small molecule inhibitors of Sentrin-specific protease 6 (SENP6) using a Luminescent assay. [Related pubchem assays (depositor defined):AID2582, AID2599]; type: functional
T8 sequence (Q9GZR1 whole entry): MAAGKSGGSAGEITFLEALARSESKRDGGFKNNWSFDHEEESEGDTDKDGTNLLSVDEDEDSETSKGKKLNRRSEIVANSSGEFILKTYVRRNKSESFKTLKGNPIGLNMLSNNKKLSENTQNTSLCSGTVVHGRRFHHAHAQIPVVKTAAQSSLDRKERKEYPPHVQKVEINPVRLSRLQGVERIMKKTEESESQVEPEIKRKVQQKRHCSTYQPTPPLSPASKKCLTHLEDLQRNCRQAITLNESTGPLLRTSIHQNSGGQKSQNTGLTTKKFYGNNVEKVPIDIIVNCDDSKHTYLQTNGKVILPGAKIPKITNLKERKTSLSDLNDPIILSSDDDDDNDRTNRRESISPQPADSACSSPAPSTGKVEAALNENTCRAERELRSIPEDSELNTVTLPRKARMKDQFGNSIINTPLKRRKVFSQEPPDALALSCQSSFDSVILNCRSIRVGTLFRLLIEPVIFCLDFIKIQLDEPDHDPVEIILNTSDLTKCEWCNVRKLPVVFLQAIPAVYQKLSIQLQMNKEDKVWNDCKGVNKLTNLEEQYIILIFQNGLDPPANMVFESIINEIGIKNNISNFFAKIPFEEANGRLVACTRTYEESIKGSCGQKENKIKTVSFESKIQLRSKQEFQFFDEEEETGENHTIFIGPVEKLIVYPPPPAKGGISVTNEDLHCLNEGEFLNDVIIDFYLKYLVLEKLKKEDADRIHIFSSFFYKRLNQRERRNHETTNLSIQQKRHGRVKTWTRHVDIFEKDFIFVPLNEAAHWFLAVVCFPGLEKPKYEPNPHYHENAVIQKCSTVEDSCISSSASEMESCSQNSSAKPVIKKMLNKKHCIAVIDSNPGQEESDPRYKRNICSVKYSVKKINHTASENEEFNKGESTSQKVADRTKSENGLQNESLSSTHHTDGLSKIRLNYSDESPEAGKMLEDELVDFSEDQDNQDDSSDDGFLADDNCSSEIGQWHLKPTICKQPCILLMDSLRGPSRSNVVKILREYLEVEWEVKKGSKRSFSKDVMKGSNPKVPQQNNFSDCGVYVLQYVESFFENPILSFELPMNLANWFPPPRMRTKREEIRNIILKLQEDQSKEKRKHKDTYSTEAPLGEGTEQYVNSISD

[13] = molecular target: T8, Sentrin-specific protease 6; test: inhibition of human SENP6 catalytic domain – biochemical, luminescence, set 2, SAR follow-up (AID 588598); type: functional
[14] = molecular target: T7, Sentrin-specific protease 7; test: inhibition of human SENP7 cleavage activity – biochemical, luminescence, SAR follow-up (AID 504497); type: functional

## O=C1c2cccc3c(N4CCCCC4)ccc(c23)C(=O)N1c1ccccc1O
CHO
  IC50: > 49.8 µM (inactive)
Beta Lactamase
  IC50: 7.63 µM (active)

## CC(C)(C)C(=O)c1sc2nc(-c3cccs3)cc(C(F)(F)F)c2c1N
[1]
  EC50: > 300 µM (not active)
[2]
  EC50: > 300 µM (inconclusive)
Ephrin type-A receptor 4
  IC50: 9.9 µM (active)
[3]
  EC50: 2.59 µM (active)
[4]
  EC50: > 99 µM (inactive)
[5]
  EC50: > 99 µM (inactive)
[6]
  EC50: 18 µM (active)

## Fc1ccc(/C=C/c2noc(-c3c(F)cccc3F)n2)cc1
[7]
  IC50: > 99 µM (inactive)
Caspase-3 [8]
  IC50: 30.8 µM (active)
[9]
  IC50: 4.97 µM (active)
Caspase-3 [10]
  IC50: 34 µM (active)
[11]
  IC50: 5.86 µM (active)
[12]
  IC50: > 99 µM (inactive)
[13]
  IC50: 4.72 µM (active)
[14]
  IC50: 11 µM (active)
